# Measurements from PMC9656319, “Pharmacokinetics and Tissue Distribution of Coumarins from Tagetes lucida in an LPS-Induced Neuroinflammation Model” (Plants, 2022).
# Experiments:
# [1] = Tissue distribution in the brain after oral hexanic extract of Tagetes lucida, healthy and LPS-administrated mice; format: in vivo, ICR mice; conditions: after the initial absorption process
# Experimental: After blood sampling, the mice were sacrificed in a chamber with chloroform by an overdose of anesthesia. The brain, kidney, and spleen were quickly removed and rinsed with saline solution, fresh weight was recorded, and immediately placed on ice. Subsequently, the organs were freeze-dried, grounded, and weighted. The lyophilized organs were individually suspended in methanol in a 1:1 volume: dry weight ratio for 24 h, then sonicated for 5 min and centrifuged at 14,000 rpm for 7 min. The supernatants were recovered in clean tubes and stored at −70 °C until their use.
# (§1) One hundred microliters of plasma and organs samples, spiked with calibration and QC concentration or samples from the pharmacokinetic study, were mixed with 300 µL of acetonitrile containing the IS at 10 µg/mL for protein precipitation, and vortexed for 3 min. Then, 200 µL of dichloromethane were added, for liquid–liquid extraction of the bioactive compounds, and vortexed for 5 min. The mixture was centrifuged at 14,000 rpm for 10 min, and the extracted organic layers were placed in new tubes, until completely dry at room temperature. For quantitative analysis, samples were resuspended in 100 µL of methanol, transferred to sampling vials, and injected into the chromatographic system, described below.
# A pharmacokinetic study was carried out in sixty mice, divided in six subgroups, according to sample collection times. An acute inflammation process by the intraperitoneal (i.p.) administration of LPS at 2 mg/kg was induced in half of the mice per group, while the other half received an i.p. injection of saline solution. Ten min after the damage was induced, the mice were administered with an oral dose of 10 mg/kg of the bioactive fraction dissolved in a 1% Tween-20 aqueous solution. […]
# To evaluate the distribution in the tissues, bioactive coumarins were quantified in the lyophilized organs, and concentrations were adjusted to the volumes of liquid obtained by the difference between the dry and fresh weights of each tissue to simulate a distribution approximation of the compounds by tissue system.
# [2] = Stability of the analytes in spiked plasma, brain, kidney and spleen matrices (autosampler, long-term, freeze-thaw); format: physicochemical, mice; conditions: for Stability Autosampler RE (%): processed samples in autosampler vials 24 h room temperature; for Stability Freeze-Thaw RE (%): three cycles (−4 °C to 25 °C); for Stability Long-Term RE (%): −70 °C for 30 days
# Experimental: The stability of the compounds obtained from each enriched matrices at the QC concentrations was evaluated under different conditions that covered the processing, handling, and storage phases that could be developed throughout the study.
# Individual stock solutions of PE, SC, DF, HR, PU, and rutin (IS) were prepared separately in methanol (1 mg/mL) and stored at −4 °C until use. From the stocks, a working solution in methanol was prepared at a concentration of 200 µg/mL of each coumarin. Blank plasma or organs supernatant samples (80 µL) were spiked with 20 µL of serial dilutions of working solution to obtain calibration curves ranging between 0.156, 0.312, 0.625, 1.25, 2.5, 5, 10, 20, and 40 µg/mL of each coumarin. Quality control (QC) samples were prepared at three levels of 0.3 (low), 3 (medium), and 30 (high) µg/mL for each coumarin.
# The stability of the analytes in plasma, brain, kidneys, and spleen was evaluated by the analyzed concentrations of QC subjected to three different conditions. Short-term stability was determined by analysis of samples processed in the autosampler vials at 24 h at room temperature. Long-term stability was tested on samples stored at −70 °C for 30 days. Freeze-thaw stability was determined after three cycles (−4 °C to 25 °C) on three consecutive days.
# [3] = Pharmacokinetic study in plasma after oral hexanic extract of Tagetes lucida, healthy and LPS-damaged mice; format: in vivo, ICR mice; conditions: plasma, 10 mg/kg oral hexanic extract, mean ± SEM (n = 5); for Cmax / AUC(0-inf) / MRT / Tmax / half-life / AUC(0-t): ICR, mouse, po, 10 mg/kg; for Cmax: non-compartmental; for AUC(0-t): to 6 h
# Experimental: The optimized HPLC-validated method for the quantification of coumarins present in the hexane extract of T. lucida was used to evaluate the concentration profiles over time in the plasma, brain, kidney, and spleen biological matrices after an oral administration of 10 mg/kg of the extract.
# Blood samples were obtained from the retro-orbital sinus of mice and collected in heparinized tubes. Plasma was separated by centrifugation at 3500 rpm for 5 min and stored in new Eppendorf tubes at −70 °C, until further processing.
# as §1
# A pharmacokinetic study was carried out in sixty mice, divided in six subgroups, according to sample collection times. An acute inflammation process by the intraperitoneal (i.p.) administration of LPS at 2 mg/kg was induced in half of the mice per group, while the other half received an i.p. injection of saline solution. Ten min after the damage was induced, the mice were administered with an oral dose of 10 mg/kg of the bioactive fraction dissolved in a 1% Tween-20 aqueous solution. Blood and tissue samples were obtained and processed at 0, 0.25, 0.75, 1.5, 2, 4, and 6 h post-dosing, as indicated in the “Samples collection” and “Plasma and tissue samples processing” sections.
# Pharmacokinetic parameters of PE, SC, DF, HR, and PU in plasma were calculated by PKSolver software.
smiles,measurement,setting,value
"COc1cc2ccc(=O)oc2cc1OCC=C(C)C [PE, 7-O-prenylscopoletin]",time at which the highest concentration in the brain tissue is reached,[1],15 min
same,Stability Autosampler RE (%),"[2]; brain, nominal 0.3 µg/mL",-2.37%
same,Stability Freeze-Thaw RE (%),"[2]; brain, nominal 0.3 µg/mL",-1.15%
same,Stability Long-Term RE (%),"[2]; brain, nominal 0.3 µg/mL",-0.63%
same,Stability Autosampler RE (%),"[2]; brain, nominal 3.0 µg/mL",-0.34%
same,Stability Freeze-Thaw RE (%),"[2]; brain, nominal 3.0 µg/mL",-2.34%
same,Stability Long-Term RE (%),"[2]; brain, nominal 3.0 µg/mL",-3.44%
same,Stability Autosampler RE (%),"[2]; brain, nominal 30.0 µg/mL",4.05%
same,Stability Freeze-Thaw RE (%),"[2]; brain, nominal 30.0 µg/mL",-1.25%
same,Stability Long-Term RE (%),"[2]; brain, nominal 30.0 µg/mL",-3.82%
same,Stability Autosampler RE (%),"[2]; kidney, nominal 0.3 µg/mL",7.06%
same,Stability Freeze-Thaw RE (%),"[2]; kidney, nominal 0.3 µg/mL",2.26%
same,Stability Long-Term RE (%),"[2]; kidney, nominal 0.3 µg/mL",3.02%
same,Stability Autosampler RE (%),"[2]; kidney, nominal 3.0 µg/mL",3.99%
same,Stability Freeze-Thaw RE (%),"[2]; kidney, nominal 3.0 µg/mL",0.91%
same,Stability Long-Term RE (%),"[2]; kidney, nominal 3.0 µg/mL",2.69%
same,Stability Autosampler RE (%),"[2]; kidney, nominal 30.0 µg/mL",1.61%
same,Stability Freeze-Thaw RE (%),"[2]; kidney, nominal 30.0 µg/mL",1.12%
same,Stability Long-Term RE (%),"[2]; kidney, nominal 30.0 µg/mL",7.34%
same,Stability Autosampler RE (%),"[2]; plasma, nominal 0.3 µg/mL",-4.00%
same,Stability Freeze-Thaw RE (%),"[2]; plasma, nominal 0.3 µg/mL",2.80%
same,Stability Long-Term RE (%),"[2]; plasma, nominal 0.3 µg/mL",-6.86%
same,Stability Autosampler RE (%),"[2]; plasma, nominal 3.0 µg/mL",11.12%
same,Stability Freeze-Thaw RE (%),"[2]; plasma, nominal 3.0 µg/mL",-2.01%
same,Stability Long-Term RE (%),"[2]; plasma, nominal 3.0 µg/mL",-4.44%
same,Stability Autosampler RE (%),"[2]; plasma, nominal 30.0 µg/mL",8.22%
same,Stability Freeze-Thaw RE (%),"[2]; plasma, nominal 30.0 µg/mL",-5.55%
same,Stability Long-Term RE (%),"[2]; plasma, nominal 30.0 µg/mL",-5.20%
same,Stability Autosampler RE (%),"[2]; spleen, nominal 0.3 µg/mL",-5.98%
same,Stability Freeze-Thaw RE (%),"[2]; spleen, nominal 0.3 µg/mL",2.50%
same,Stability Long-Term RE (%),"[2]; spleen, nominal 0.3 µg/mL",1.51%
same,Stability Autosampler RE (%),"[2]; spleen, nominal 3.0 µg/mL",-10.42%
same,Stability Freeze-Thaw RE (%),"[2]; spleen, nominal 3.0 µg/mL",4.42%
same,Stability Long-Term RE (%),"[2]; spleen, nominal 3.0 µg/mL",3.67%
same,Stability Autosampler RE (%),"[2]; spleen, nominal 30.0 µg/mL",-1.02%
same,Stability Freeze-Thaw RE (%),"[2]; spleen, nominal 30.0 µg/mL",2.38%
same,Stability Long-Term RE (%),"[2]; spleen, nominal 30.0 µg/mL",2.78%
same,Cmax,[3]; LPS-damaged ICR mice (LPS 2 mg/kg i.p.),1770 ± 310 ng/mL
same,AUC(0-inf),[3]; LPS-damaged ICR mice,6370 ± 1200 ng·h/mL
same,MRT,[3]; LPS-damaged ICR mice,6.96 ± 1.92 h
same,Tmax,[3]; LPS-damaged ICR mice,0.85 ± 0.28 h
same,half-life,[3]; LPS-damaged ICR mice,4.48 ± 1.31 h
same,AUC(0-t),[3]; LPS-damaged ICR mice,3520 ± 100 ng·h/mL
same,AUC(0-inf),[3]; healthy ICR mice,1700 ± 310 ng·h/mL
same,MRT,[3]; healthy ICR mice,3.04 ± 0.45 h
same,Tmax,[3]; healthy ICR mice,1.55 ± 0.34 h
same,half-life,[3]; healthy ICR mice,1.86 ± 0.55 h
same,Cmax,[3]; healthy ICR mice,930 ± 290 ng/mL
same,AUC(0-t),[3]; healthy ICR mice,1560 ± 350 ng·h/mL
same,Cl/F,[3]; LPS-damaged ICR mice,17.38 ± 2.25 (mg/kg)/(μg/mL)/h
same,Cl/F,[3]; healthy ICR mice,65.83 ± 10.18 (mg/kg)/(μg/mL)/h
